Measured values: patent US5684024A, “Pyrazole dimers compositions and methods for treating influenza” (priority 1996, dated 1997)
pIC50: −log10 of the molar value.

Tests used:
influenza A/Victoria = assay: Plaque reduction in MDCK cells, influenza A/Victoria; details: 48 h, read-out: IC50, […], A/Victoria
Method: (§1) Compounds were evaluated for antiviral activity against influenza A/WSN by plaque reduction in Madin Darby canine kidney (MDCK) cells. Duplicate monolayers of MDCK cells in 6 well plates were washed free of protein-containing media, infected with 50-100 plaque-forming units of virus (0.4 ml volume), and incubated at 37° C. for 60 min. After aspiration of the virus inoculum, a 0.6% agarose overlay (3 ml) containing Eagle minimal essential media, trypsin (8 μg/ml), and the appropriate drug dilution (final concentration of 1% DMSO) was added to the cell monolayer. Plates were incubated at 37° C. in a humidified atmosphere of 5% CO2 in air. After 48 h, monolayers were fixed with glutaraldehyde, stained with 0.1% crystal violet and the plaques were counted. The percentage of plaque inhibition relative to the infected control (no drug) plates were calculated for each drug concentration and the 50% inhibitory concentration (IC50) was determined.

[1] = target: influenza A/WSN virus transcriptase (Influenza A virus, UniProt P03427+P03430+P15659); assay: biochemical; details: read-out: IC50, concentration required to achieve 50% inhibition of influenza A/WSN virus transcriptase activity
influenza A/WSN = assay: Plaque reduction in MDCK cells, influenza A/WSN; details: 48 h, read-out: IC50, […], A/WSN
Method: as §1

| Structure (SMILES) | pIC50 (influenza A/Victoria) | pIC50 [1] | pIC50 (influenza A/WSN) |
| --- | --- | --- | --- |
| CC(=O)C1=NN(c2ccc(C(=O)O)cc2C)C(=O)C1=C1C(=O)N(c2ccc(C(=O)O)cc2C)N=C1C(C)=O [Example 4, 3,3'-Bis[3-Methyl-4-(2-hydroxy-4-acetylpyrazolyl)-benzoic Acid]] | 4.60 | 6.70 | 4.30 |
| COc1cc(C(=O)O)ccc1N1N=C(C(C)=O)C(=C2C(=O)N(c3ccc(C(=O)O)cc3OC)N=C2C(C)=O)C1=O [Example 5] |  | 5.92 |  |
| CC(=O)C1=NN(c2ccc(C(=O)O)c(Cl)c2)C(=O)C1=C1C(=O)N(c2ccc(C(=O)O)c(Cl)c2)N=C1C(C)=O [Example 6] |  | 6.10 |  |
| CC(=O)C1=NN(c2ccc(C(=O)O)cc2)C(=O)C1=C1C(=O)N(c2ccc(C(=O)O)cc2)N=C1C(C)=O [Example 7] | 4.52 | 6.30 | 4.30 |
| CC(=O)C1=NN(c2cccc(C(=O)O)c2)C(=O)C1=C1C(=O)N(c2cccc(C(=O)O)c2)N=C1C(C)=O [Example 8] |  | 6.46 |  |
| CC(=O)C1=NN(c2ccc(Cl)c(C(=O)O)c2)C(=O)C1=C1C(=O)N(c2ccc(Cl)c(C(=O)O)c2)N=C1C(C)=O [Example 9] |  | 6.60 |  |
| CC(=O)C1=NN(c2cc(C(=O)O)ccc2C)C(=O)C1=C1C(=O)N(c2cc(C(=O)O)ccc2C)N=C1C(C)=O [Example 10] |  | 6.46 |  |
